According to patent US12053522B2, “Pro-inflammatory and anti-cancer functions of toll-like receptor 4 antagonists” (Children's Medical Center Corporation, priority 2015, dated 2024):

Legend:
Format in all cases: cell-based, mouse
[1] = system: LPS-pretreated DCs; assay: ASC and caspase-1 containing speck formation (immunofluorescence); details: ATP 1 mM, oxPAPC 120 μM
Method: For live or permeability experiment, MitotTacker CMX-ROS (Life Technologies) or Zombie Red (BioLegend) dyes were used in according to manufacturer's instructions before fixation with 4% paraformaldehyde. After permeabilization step using 0.1% Triton X-100 0.2% BSA-PBS, cells were blocked in 2% BSA-PBS and incubated with rabbit anti-ASC pAb (AL177, Adipogen) and mouse anti-caspase-1 mAb (Casper-1, Adipogen) followed by Alexa Fluor 488-conjugated chicken anti-rabbit IgG (Life Technologies) and Alexa Fluor 568-conjugated goat anti-mouse IgG (Life Technologies) diluted in blocking buffer. Nuclei were counterstained with DAPI (Life Technologies) or DRAQ5 (BioLegend). A Zeiss Axiovert 200M confocal microscope or an Olympus BX41 fluorescence microscope was used to acquire images.

[2] = system: DCs; assay: Pyroptosis / cell death by LDH release; details: LPS-primed DCs
From the text: In addition to promoting IL-β release, inflammasome activation has been typically associated with the induction of cell death (Aachoui, Y., (2013b). Current opinion in microbiology 16, 319-326). Without wishing to be bound by theory, cell death via non-canonical inflammasomes is believed to depend upon the enzymatic activity of caspase-11, which must cleave at least two proteins, gasdermin d and pannexin-1 (Kayagaki, N. et al., (2015) Nature 526, 666-671; Shi, J. et al., (2015) Nature 526, 660-665; Yang, D. et al., (2015) Immunity 43, 923-932). […] To assess this possibility directly, pyroptosis induction after oxPAPC administration or LPS transfection in LPS-primed DCs was measured. Pyroptosis is characterized by a rapid loss of plasma membrane integrity, which should release cytoplasmic proteins (and organelles) from the cell body. LDH release in the supernatant was used to assess membrane permeabilization of the cell population during pyroptosis. LPS/ATP-treated cells released LDH starting 4 hours after treatment (FIG. 48A); this combination was a well-defined activator of inflammasome-mediated cell death (Aachoui, Y., (2013b). Current opinion in microbiology 16, 319-326). Cells transfected with LPS, independently from LPS priming, died at later time points than cells treated with ATP (FIG. 48A).

[3] = system: DCs; assay: Single cell viability assay of inflammasome-containing cells (Zombie dye, active mitochondria); details: LPS-pretreated DCs
Method: BMDCs cells were treated with LPS (1 μg/mL) for 3 hours before inflammasome-inducing stimuli challenge. For live or permeability experiment, MitotTacker CMX-ROS (Life Technologies) or Zombie Red (BioLegend) dyes were used in according to manufacturer's instructions before fixation with 4% paraformaldehyde. After permeabilization step using 0.1% Triton X-100 0.2% BSA-PBS, cells were blocked in 2% BSA-PBS and incubated with rabbit anti-ASC pAb (AL177, Adipogen) and mouse anti-caspase-1 mAb (Casper-1, Adipogen) followed by Alexa Fluor 488-conjugated chicken anti-rabbit IgG (Life Technologies) and Alexa Fluor 568-conjugated goat anti-mouse IgG (Life Technologies) diluted in blocking buffer. Nuclei were counterstained with DAPI (Life Technologies) or DRAQ5 (BioLegend). A Zeiss Axiovert 200M confocal microscope or an Olympus BX41 fluorescence microscope was used to acquire images.

[4] = system: primary bone marrow-derived MΦs; assay: IL-1β release from macrophages (ELISA)
From the text: (§1) C57BL/6J (Jax 000664), C57BL/6NJ (Jax 005304), CD14 KO (Jax 003726), caspase-1/-11 dKO mice (Jax 016621), TLR4-mutant (C3H/HeJ, Jax 000659), and wild-type control for TLR4-mutant (C3H/HeSNJ, Jax 000661) were purchased from Jackson Labs. NLRP3 KO and ASC KO mice were kindly provided by Dr. T. Horng, Harvard School of Public Health. Caspase-11 KO mice were kindly provided by Dr. Junying Yuan, Harvard Medical School. Caspase-1 single KO mice were kindly provided by Thirumala-Devi Kanneganti (St. Judes). DCs were differentiated from bone marrow in IMDM (Gibco), 10% B16-GM-CSF derived supernatant, 2 μM 2-mercaptoethanol and 10% FBS and used after 6 day of culture. DC purity was assessed by flow cytometry and was usually higher than 90%. […]
RNA was isolated from cell cultures using Qiashedder (Qiagen) and GeneJET RNA Purification Kit (Life Technologies). Purified RNA was analyzed for gene expression on a CFX384 real time cycler (Bio-rad) using TaqMan RNA-to-CT 1-Step Kit (Applied Biosystems) with probes purchased from Life Technologies specific for viperin (Mm00491265_m1), IFNb1 (Mm00439552_s1), IL6 (Mm00446190_m1), caspase-1 (Mm00438023_m1), caspase-11 (Mm00432307_m1), Nlrp3 (Mm00840904_m1), Asc (Mm00445747_g1), TBP (Mm00446971_m1) or GAPDH (Mm99999915_g1). ELISA for IL-1β, IL-2, IL-17, IL-18, TNFα and IFNγ were performed using Mouse Ready-SET-Go ELISA kits (eBioscience). […]

[5] = system: bone marrow derived DCs; assay: IL-1β release from DCs (ELISA)
Method: NLRP3 KO and ASC KO mice were kindly provided by Dr. T. Horng, Harvard School of Public Health. Caspase-11 KO mice were kindly provided by Dr. Junying Yuan, Harvard Medical School. Caspase-1 single KO mice were kindly provided by Thirumala-Devi Kanneganti (St. Judes). DCs were differentiated from bone marrow in IMDM (Gibco), 10% B16-GM-CSF derived supernatant, 2 μM 2-mercaptoethanol and 10% FBS and used after 6 day of culture. […] MO were differentiated from bone marrow in DMEM (Gibco), 30% L929 supernatant, and 10% FBS. Immortal MΦs were cultured in DMEM supplemented with 10% L929 supernatant and 10% FBS. […] For experiments using pan-caspase inhibitor, cells were treated with zVADfmk (20 μM) 30 min before inflammasome activation stimuli addition. Cycloheximide (50 ng/ml) was added at the time of stimuli administration. Transfection with DOTAP was performed following the manufacturer instructions. […] 30 min later, the DOTAP/LPS or DOTAP/oxPAPC complex were added to the culture.
RNA was isolated from cell cultures using Qiashedder (Qiagen) and GeneJET RNA Purification Kit (Life Technologies). Purified RNA was analyzed for gene expression on a CFX384 real time cycler (Bio-rad) using TaqMan RNA-to-CT 1-Step Kit (Applied Biosystems) with probes purchased from Life Technologies specific for viperin (Mm00491265_m1), IFNb1 (Mm00439552_s1), IL6 (Mm00446190_m1), caspase-1 (Mm00438023_m1), caspase-11 (Mm00432307_m1), Nlrp3 (Mm00840904_m1), Asc (Mm00445747_g1), TBP (Mm00446971_m1) or GAPDH (Mm99999915_g1). ELISA for IL-1β, IL-2, IL-17, IL-18, TNFα and IFNγ were performed using Mouse Ready-SET-Go ELISA kits (eBioscience). To measure secreted cytokines, supernatant were collected, clarified by centrifugation and stored at −20° C. Cell associated cytokines were measured as follows: 96-well plates were centrifuged and supernatant was discarded. 250 μl of PBS were added to each well. Cells were frozen and thawed two times at −80° C. and then stored at −20° C. for further analysis.

[6] = system: DCs; assay: DC viability / survival (7-AAD staining); details: up to 72 hours after treatment; ATP and oxPAPC in LPS-treated DCs
From the text: It was contemplated that living cells should resist staining with Zombie dye, a stain that labels the cytosol of cells whose plasma membranes have been disrupted. Cells with intact plasma membranes should also retain functional organelles. In contrast, pyroptotic cells should have lost their organelles and should stain strongly for Zombie dye. […] Moreover, not only did oxPAPC not induce pyroptosis, this lipid counteracted the slow acting death pathways activated by LPS in DCs (Zanoni, I. et al. (2009) Nature 460, 264-268). For this experiment, the health of individual cells within the population up to 72 hours after treatment was assessed by flow cytometry, using the viability stain 7-AAD, which detected genomic DNA within cells whose membranes had been permeabilized (Paterson, A. M. et al., (2011) J Immunol 187, 1097-1105).

[7] = system: DCs; assay: TNFα secretion from DCs (ELISA); details: WT and caspase-11 KO DCs
From the text: as §1, with “90%. MO were differentiated from bone marrow in DMEM (Gibco), 30% L929 supernatant, and 10% FBS. Immortal MΦs were cultured in DMEM supplemented with 10% L929 supernatant and 10% FBS. Splenic DCs were purified as described previously (Zanoni et al., 2012). Prior to stimulations, cultured cells were washed and re-plated in DMEM supplemented with 10% FBS at a concentration of 1×10^6 cells/ml in a final volume of 100 μl. For experiments using pan-caspase inhibitor, cells were treated with zVADfmk (20 μM) 30 min before inflammasome activation stimuli addition.” for “90%.”
RNA was isolated from cell cultures using Qiashedder (Qiagen) and GeneJET RNA Purification Kit (Life Technologies). Purified RNA was analyzed for gene expression on a CFX384 real time cycler (Bio-rad) using TaqMan RNA-to-CT 1-Step Kit (Applied Biosystems) with probes purchased from Life Technologies specific for viperin (Mm00491265_m1), IFNb1 (Mm00439552_s1), IL6 (Mm00446190_m1), caspase-1 (Mm00438023_m1), caspase-11 (Mm00432307_m1), Nlrp3 (Mm00840904_m1), Asc (Mm00445747_g1), TBP (Mm00446971_m1) or GAPDH (Mm99999915_g1). ELISA for IL-1β, IL-2, IL-17, IL-18, TNFα and IFNγ were performed using Mouse Ready-SET-Go ELISA kits (eBioscience). […] Cell associated cytokines were measured as follows: 96-well plates were centrifuged and supernatant was discarded. […]

Nc1ncnc2c1ncn2[C@@H]1O[C@H](COP(=O)(O)OP(=O)(O)OP(=O)(O)O)[C@@H](O)[C@H]1O [ATP]
formation of ASC and caspase-1-containing specks [1]: induced the formation | time from which LDH was released [2]: ≥ 4 h | mitochondria and Zombie dye staining of cells containing ASC specks [3]: lost mitochondria and stained positive for Zombie dye | IL-1β release [4]: promoted the efficient release of IL-1β | IL-1β release ([5]; BMDCs lacking caspase-1/-11 or ASC): completely lost | IL-1β release ([5]; LPS-primed DCs): elicit IL-1β release from DCs in a dose-dependent manner | IL-1β release ([5]; LPS-primed caspase-11 KO DCs): remained intact | cell-associated IL-1β levels ([5]; LPS-primed, compared with LPS alone): similar | IL-1β release ([5]; NLRP3-deficient BMDCs): NLRP3 dependent | IL-1β release ([5]; Pam3CSK-primed caspase-11 KO cells): remained intact | DC viability (7-AAD) [6]: diminished DC viability | TNFα secretion [7]: not affected
